Results taken from patent publication US10759751B2, “Substituted spirocyclohexanes as muscarinic M1 receptor and/or M4 receptor agonists” (Heptares Therapeutics Limited, priority 2016, dated 2020).

Tests used:
Type in all cases: cell-based
[1] = molecular target: T1, human muscarinic M4 receptor (Homo sapiens, UniProt P08173); experiment: Alphascreen Surefire phospho-ERK1/2 functional assay, M4; conditions: for EC50: phospho-ERK1/2, read-out: pEC50 M4 (converted); for Emax: CHO, read-out: M4 % Emax cf. ACh, CHO cells stably expressing human M4
T1 construct: expressed in transfected cells
T1 sequence (P08173 1-479): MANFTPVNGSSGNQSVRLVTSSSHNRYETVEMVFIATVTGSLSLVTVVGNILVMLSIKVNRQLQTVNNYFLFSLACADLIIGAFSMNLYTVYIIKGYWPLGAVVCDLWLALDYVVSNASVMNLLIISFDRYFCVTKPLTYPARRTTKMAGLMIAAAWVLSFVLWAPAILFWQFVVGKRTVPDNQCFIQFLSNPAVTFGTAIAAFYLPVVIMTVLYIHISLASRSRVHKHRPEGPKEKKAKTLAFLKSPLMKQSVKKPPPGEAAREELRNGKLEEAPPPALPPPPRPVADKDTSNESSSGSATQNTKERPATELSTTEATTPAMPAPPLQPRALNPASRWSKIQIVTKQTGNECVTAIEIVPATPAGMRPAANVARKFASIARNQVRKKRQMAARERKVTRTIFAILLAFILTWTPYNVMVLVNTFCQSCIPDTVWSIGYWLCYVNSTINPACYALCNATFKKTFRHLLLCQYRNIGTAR
Summary of the method: (§1)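 Steps: plate CHO cells stably expressing the receptor in MEM-alpha with 10% dialysed FBS; starve overnight; add agonist for 5 min at 37 °C; lyse for 15 min; incubate the lysate with SureFire detection reagents for 2 h; read. The outputs are pEC50 and Emax.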

[2] = molecular target: T2, human muscarinic M2 receptor (Homo sapiens, UniProt P08172); experiment: Alphascreen Surefire phospho-ERK1/2 functional assay, M2; conditions: for EC50: CHO cells stably expressing human M2, phospho-ERK1/2, read-out: pEC50 M2 (converted); for Emax: CHO, read-out: M2 % Emax cf. ACh
T2 sequence (P08172 1-466): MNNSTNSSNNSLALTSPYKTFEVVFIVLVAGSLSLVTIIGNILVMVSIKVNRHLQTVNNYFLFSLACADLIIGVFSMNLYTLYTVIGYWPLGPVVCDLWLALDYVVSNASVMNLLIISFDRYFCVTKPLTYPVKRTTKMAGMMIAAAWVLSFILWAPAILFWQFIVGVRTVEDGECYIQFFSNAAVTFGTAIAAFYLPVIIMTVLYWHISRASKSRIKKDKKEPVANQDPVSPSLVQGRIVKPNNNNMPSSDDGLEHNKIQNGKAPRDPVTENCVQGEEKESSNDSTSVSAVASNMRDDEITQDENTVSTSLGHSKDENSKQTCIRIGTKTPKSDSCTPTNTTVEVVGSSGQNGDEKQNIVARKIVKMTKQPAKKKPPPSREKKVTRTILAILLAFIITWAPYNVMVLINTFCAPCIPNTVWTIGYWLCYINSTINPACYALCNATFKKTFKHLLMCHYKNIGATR
Summary of the method: as §1

[3] = molecular target: T3, human muscarinic M3 receptor (Homo sapiens, UniProt P20309); experiment: Alphascreen Surefire phospho-ERK1/2 functional assay, M3; conditions: for EC50: CHO cells stably expressing human M3, phospho-ERK1/2, read-out: pEC50 M3 (converted); for Emax: CHO, read-out: M3 % Emax cf. ACh
T3 construct: expressed in transfected cells
Summary of the method: as §1

[4] = molecular target: T4, human muscarinic M1 receptor (Homo sapiens, UniProt P11229); experiment: Alphascreen Surefire phospho-ERK1/2 functional assay, M1; conditions: for EC50: CHO cells stably expressing human M1, phospho-ERK1/2, read-out: pEC50 M1 (converted); for Emax: CHO, read-out: M1 % Emax cf. ACh, CHO cells stably expressing human M1, Emax relative to ACh
T4 sequence (P11229 1-460): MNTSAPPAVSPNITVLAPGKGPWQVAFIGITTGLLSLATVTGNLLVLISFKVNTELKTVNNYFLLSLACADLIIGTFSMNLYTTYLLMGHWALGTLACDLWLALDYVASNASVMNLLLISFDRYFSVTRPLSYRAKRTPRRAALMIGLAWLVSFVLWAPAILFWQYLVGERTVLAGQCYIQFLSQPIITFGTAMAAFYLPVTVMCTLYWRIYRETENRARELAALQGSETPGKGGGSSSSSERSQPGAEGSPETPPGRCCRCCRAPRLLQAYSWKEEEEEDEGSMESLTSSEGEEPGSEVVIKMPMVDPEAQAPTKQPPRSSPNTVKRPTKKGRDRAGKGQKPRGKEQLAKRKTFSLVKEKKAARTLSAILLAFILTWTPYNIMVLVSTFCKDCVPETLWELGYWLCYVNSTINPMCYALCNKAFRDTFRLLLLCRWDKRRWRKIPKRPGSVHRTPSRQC
Summary of the method: as §1

[5] = CHO cells stably expressing human M4

T3 sequence (P20309 whole entry): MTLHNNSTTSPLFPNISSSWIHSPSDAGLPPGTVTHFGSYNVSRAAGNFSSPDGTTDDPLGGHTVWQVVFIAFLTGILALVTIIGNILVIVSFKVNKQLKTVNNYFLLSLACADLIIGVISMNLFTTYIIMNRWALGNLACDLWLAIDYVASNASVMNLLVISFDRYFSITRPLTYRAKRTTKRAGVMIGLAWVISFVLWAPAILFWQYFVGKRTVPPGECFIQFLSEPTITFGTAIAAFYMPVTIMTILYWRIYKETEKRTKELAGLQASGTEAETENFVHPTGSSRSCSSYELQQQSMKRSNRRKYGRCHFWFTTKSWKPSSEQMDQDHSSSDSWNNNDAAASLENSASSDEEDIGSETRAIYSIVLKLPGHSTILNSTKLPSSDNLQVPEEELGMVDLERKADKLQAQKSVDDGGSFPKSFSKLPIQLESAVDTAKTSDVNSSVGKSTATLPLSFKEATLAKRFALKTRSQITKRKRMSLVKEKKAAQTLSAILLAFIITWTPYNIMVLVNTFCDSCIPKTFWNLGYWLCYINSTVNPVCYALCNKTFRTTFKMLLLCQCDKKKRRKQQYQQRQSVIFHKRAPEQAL

Compound | EC50 [1, 5] [µM] | Emax ([1]; Emax relative to ACh) [%] | EC50 [2] [µM] | Emax [2] [%] | EC50 [3] [µM] | Emax [3] [%] | EC50 [4] [µM] | Emax [4] [%] | M4 % Emax cf. ACh ([1]; CHO cells stably expressing human M4, Emax relative to ACh) [%]
Cc1noc(C2CC3(CCN(C4CCC(C#N)(c5ccccc5F)CC4)C3)C2)n1 (single isomer, unassigned) [21-2 Isomer 3] | 0.0617 | 58 | > 20 | 16 | > 20 | 15 | 0.0724 | 77 | –
Cc1noc([C@@H]2CCCN(C3CCC4(CC3)C(=O)Nc3ccccc34)C2)n1 (single isomer, unassigned) [22-1 Isomer 1] | 0.398 | 47 | > 20 | 11 | > 20 | 11 | 0.229 | 83 | –
O=C1Nc2ccccc2C12CCC(N[C@@H]1CC[C@H](c3nc(C(F)(F)F)no3)C1)CC2 (single isomer, unassigned) [24-1 Isomer 1] | 0.105 | 62 | > 20 | 16 | > 20 | 23 | 0.219 | 89 | –
CCc1noc(C2CC3(C2)CN(C2CCC4(CC2)C(=O)Nc2ccccc24)C3)n1 (single isomer, unassigned) [25-1 Isomer 1] | 0.155 | 70 | > 20 | 13 | > 20 | 6 | 0.617 | 43 | –
COc1ccc2c(c1)C1(CCC(N3CCC4(CC(c5nc(C)no5)C4)C3)CC1)C(=O)N2 (single isomer, unassigned) [26-2 Isomer 1] | 0.0813 | – | > 20 | 6 | > 20 | 4 | 0.0162 | 38 | 35

Results, then the molecule that gave them:

EC50 [1, 5] [µM] | Emax ([1]; Emax relative to ACh) [%] | EC50 [2] [µM] | Emax [2] [%] | EC50 [3] [µM] | Emax [3] [%] | EC50 [4] [µM] | Emax [4] [%] | M4 % Emax cf. ACh ([1]; CHO cells stably expressing human M4, Emax relative to ACh) [%] | Compound
0.126 | 58 | > 20 | 61 | > 20 | 30 | 0.219 | 78 | – | N#CC1(c2ccccc2)CCC(N2CC3(CC(c4nc(C(F)(F)F)no4)C3)C2)CC1 (single isomer, unassigned) [20-1 Isomer 2]
0.537 | 42 | > 20 | 12 | > 20 | 21 | 0.0708 | 55 | – | COc1ccc2c(c1)C1(CCC(N3CCC[C@@H](c4nc(C)no4)C3)CC1)C(=O)N2 (single isomer, unassigned) [22-2 Isomer 1]
0.141 | 40 | > 20 | 17 | > 20 | 59 | 0.123 | 51 | – | Cc1ccc2c(c1)C1(CCC(N3CCC[C@@H](c4nc(C)no4)C3)CC1)C(=O)N2 (single isomer, unassigned) [22-3 Isomer 1]
0.219 | 39 | > 20 | 20 | > 20 | 17 | 0.0794 | 76 | – | Cc1ccc2c(c1)NC(=O)C21CCC(N2CCC[C@@H](c3nc(C)no3)C2)CC1 (single isomer, unassigned) [22-4 Isomer 1]
0.0407 | 50 | > 20 | 22 | > 20 | 7 | 0.0151 | 74 | – | Cc1ccc2c(c1)C1(CCC(N3CCC4(CC(c5nc(C)no5)C4)C3)CC1)C(=O)N2 (single isomer, unassigned) [26-1 Isomer 2]
0.0288 | 72 | > 20 | 11 | > 20 | 19 | 0.0933 | 31 | – | CCc1noc(C2CC3(CCN(C4CCC5(CC4)C(=O)Nc4ccccc45)C3)C2)n1 (single isomer, unassigned) [26-3 Isomer 1]
